Measured values: the NIST ThermoML archive (doi:10.1016/j.fluid.2008.06.006)

Tests used:
[1] = for vapor or sublimation pressure / mass density: Liquid; for mass density: 298.15 K, 101.33 kPa; for surface tension liquid-gas: 303.15 K, Ring tensiometer
[2] = refractive index (Na D-line) (dimensionless); conditions: 298.15 K; 101.33 kPa; Liquid; Standard Abbe refractometry
[3] = xn = mol fraction of the nth substance listed; conditions: 303.15 K, Maximal bubble pressure

CC(C)=O [acetone]
[1], Ebulliometric method (Recirculating still)
Conditions | vapor or sublimation pressure [kPa]
297.65 K | 30.06
303.23 K | 38.04
307.39 K | 45.04
310.58 K | 51.08
314.35 K | 59.07
317.33 K | 66.06
320.08 K | 73.08
322.61 K | 80.07
324.96 K | 87.09
327.17 K | 94.07
329.33 K | 101.35

Conditions | mass density [kg/m3] | refractive index | surface tension liquid-gas [mN/m]
[1] | 784.23 | – | 22.45
[2] | – | 1.35732 | –

CC(C)=O [acetone] + C1CCCCC1
[3]
Conditions | surface tension liquid-gas [mN/m]
x1 = 0.047 | 23.85
x1 = 0.091 | 23.6
x1 = 0.185 | 23.1
x1 = 0.298 | 22.7
x1 = 0.403 | 22.4
x1 = 0.513 | 22.2
x1 = 0.621 | 22.1
x1 = 0.736 | 22.05
x1 = 0.842 | 22.15
x1 = 0.943 | 22.4

C1CCCCC1 [cyclohexane]
Conditions | mass density [kg/m3] | refractive index | surface tension liquid-gas [mN/m]
[1] | 773.84 | – | 24.1
[2] | – | 1.42508 | –

[1]
Conditions | vapor or sublimation pressure [kPa]
302.71 K | 16.01
312.45 K | 24.02
318.13 K | 30.03
324.4 K | 38.02
329.08 K | 45.03
332.63 K | 51.01
336.88 K | 59.01
340.25 K | 66.01
343.34 K | 73.02
346.22 K | 80.03
348.89 K | 87.02
351.4 K | 94.02
354.06 K | 101.9

CC(C)OC(C)C [diisopropyl ether]
[1], Ebulliometric method (Recirculating still)
Conditions | vapor or sublimation pressure [kPa]
293.25 K | 16.02
302.42 K | 24.02
307.79 K | 30.02
313.73 K | 38.02
318.15 K | 45.02
321.52 K | 51.01
325.55 K | 59.01
328.74 K | 66.01
331.67 K | 73.01
334.38 K | 80.01
336.91 K | 87.01

Conditions | mass density [kg/m3] | refractive index | surface tension liquid-gas [mN/m]
[1] | 718.34 | – | 16.7
[2] | – | 1.36644 | –

CC(C)OC(C)C [diisopropyl ether] + C1CCCCC1
[3]
Conditions | surface tension liquid-gas [mN/m]
x1 = 0.049 | 23.3
x1 = 0.098 | 22.7
x1 = 0.199 | 21.4
x1 = 0.301 | 20.7
x1 = 0.403 | 19.75
x1 = 0.509 | 19
x1 = 0.622 | 18.3
x1 = 0.727 | 17.8
x1 = 0.837 | 17.3
x1 = 0.936 | 16.9
x1 = 0.967 | 16.8

CC(C)OC(C)C [diisopropyl ether] + CC(C)=O
[3]
Conditions | surface tension liquid-gas [mN/m]
x2 = 0.046 | 16.75
x2 = 0.089 | 16.8
x2 = 0.187 | 16.95
x2 = 0.29 | 17.3
x2 = 0.39 | 17.65
x2 = 0.499 | 18.05
x2 = 0.61 | 18.6
x2 = 0.722 | 19.2
x2 = 0.829 | 20.15
x2 = 0.93 | 21.3
x2 = 0.973 | 21.94
